Measured values published in patent publication EP1191024A1, “Thiadiazines and their use as inhibitors of metalloproteinases” (Tschesche, Harald, priority 2000, dated 2002).
pIC50: −log10 of the molar value. Read-outs that look alike come from different tables or passages of the source.

Columns and labels:
Assay in all cases: MMP microfluorometric profiling assay (fluorogenic Mca-peptide substrate)
Assay type in all cases: biochemical
MMP-1 = target: T1, MMP-1 (Homo sapiens, UniProt P03956)
T1 construct: MMP-1 from human rheumatoid synovial fibroblasts was purchased; purchased Calbiochem-Novabiochem Corporation, LaJolla; host or cells: human rheumatoid synovial fibroblasts
T1 sequence (P03956 100-469): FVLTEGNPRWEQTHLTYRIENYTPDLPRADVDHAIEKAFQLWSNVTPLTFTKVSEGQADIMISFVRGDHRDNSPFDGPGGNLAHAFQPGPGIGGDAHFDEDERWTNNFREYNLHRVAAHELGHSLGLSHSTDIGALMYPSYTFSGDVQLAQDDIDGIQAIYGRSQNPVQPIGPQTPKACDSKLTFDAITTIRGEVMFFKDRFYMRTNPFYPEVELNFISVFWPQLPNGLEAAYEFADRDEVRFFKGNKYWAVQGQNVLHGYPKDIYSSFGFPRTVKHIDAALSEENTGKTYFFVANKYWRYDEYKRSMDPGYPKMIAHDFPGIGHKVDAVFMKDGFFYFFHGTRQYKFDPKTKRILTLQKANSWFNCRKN
Protocol: (§1) The tested MMP enzymes were prepared more specifically in the laboratories of the applicants, with the exception of MMP-1. MMP-1 from human rheumatoid synovial fibroblasts was purchased from Calbiochem-Novabiochem Corporation, LaJolla. Preparation of the recombinant catalytic domain of human Gelatinase A (cdMMP-2): The catalytic domain of Pro-Gelatinase A was prepared using an E. coli expression system according to the method described by Kröger et al^[19]. The proenzyme was activated with 0.5 mM APMA at 37°C prior to use in the assay. Preparation of the recombinant catalytic domain of human neutrophile Collagenase (cdMMP-8^Met80): The enzyme was expressed in E. coli as an active variant by the method of Kleine et al^[20]. Preparation of PMNL-Gelatinase (MMP-9): Latent PMNL-pro-Gelatinase was prepared from human plasma buffy coat as described by Tschesche et al^[21]. PMNL-pro-Gelatinase was activated prior to use by incubation with Trypsin at 37°C for 10 min. Inactivation of Trypsin was accomplished with TKI. Preparation of the recombinant catalytic domain of human Macrophage Elastase (cdMMP-12): The catalytic domain of MMP-12 was expressed in E. coli. The overexpressed protein was isolated as inclusion bodies and the renatured protein was purified by affinity chromatography with a hydroxamate inhibitor coupled column as described^[22]. Preparation of the recombinant catalytic domain of human Collagenase-3 (cdMMP-13): Human pro-cdMMP-13 was prepared using an E. coli expression system according to the method described^[23]. The isolated pro-cdMMP-13 was activated prior to use by incubation with 5 mM HgCl2 for 2 h at 37°C. Preparation of the recombinant catalytic domain of Membrane-Type-1 MMP (cdMMP-14): The catalytic domain of MMP-14 was expressed in E. coli and was activated by autocatalysis^[24]. Preparation of the recombinant human ectodomain of Membrane-Type-1 MMP (ΔTM-MMP-14): The ectodomain of MMP-14 was expressed in Pichia Pastoris by the method of Roderfeld et al. and activated by yeast proteases (Furin-like-proteases) during maturation^[25].
(§2) The enzymatic activity was measured using a modified version of a resonance energy transfer fluorogenic assay as described^[26]. Progress curves were monitored by following the increase in fluorescence at 393 nm (λex = 328 nm), induced by the cleavage of the (7-methoxycoumarin-4-yl)acetyl-Pro-Leu-Gly-Leu-(3-[2,4-dinitro-phenyl]-L-2,3-diamino-propionyl)-Ala-Arg-NH2 (Mca-Pro-Leu-Gly-Leu-Dpa-Ala-Arg-NH2) fluorogenic substrate by MMPs. The fluorescent MCA-group is quenched by resonance energy transfer to the 2,4-dinitrophenyl group. Matrix metalloproteinases cleave this substrate at the Gly-Leu bond. Cleavage results in the loss of energy transfer and a large increase in fluorescence of the MCA group. This substrate is commercially available from Bachem, Switzerland.
(§3) Enzyme inhibition assays were carried out in MRB which consisted of 50 mM HEPES/NaOH, pH 7.0, 10 mM CaCl2 and 0,02% (w/v) PEG 8000 at 25°C. MMP microfluorometric profiling assay was done in white U-bottomed 96-well plates (Microfluor 1 White, Dynex, USA) with a final substrate concentration of 6 µM MCA-peptide, approximately 0.3 to 5 nM MMP with variable inhibitor concentrations and 2% DMSO vehicle. From a 1.5 mM stock (100% DMSO) the inhibitors were serially diluted with MRB to 15, 10, 5, 3, 1, 0.6, 0.3, 0.1, 0.05, 0.01 and 0.005 µM final assay concentration. Column 1, rows A through H, contained only DMSO for the "enzyme-only" wells in the assay. After preincubation for 30 min at 25°C the reaction was started by addition of substrate and the plate was read on a SpectraFluor Plus (Tecan, Germany) plate reader with excitation at 330 nm and emission at 405 nm with the gain set to 150. Each measurement was done in triplicate to ensure statistically significant results. […]

cdMMP-13 = cdMMP-13 (Homo sapiens, UniProt P45452)
Protocol: as §1, §2, §3

cdMMP-14 = target: T2, cdMMP-14 (Homo sapiens, UniProt P50281)
T2 construct: made in house; host or cells: E. coli
Protocol: as §1, §2, §3

MMP-9 = target: T3, MMP-9 (Homo sapiens, UniProt P14780)
T3 construct: from tissue; host or cells: human plasma buffy coat (PMNL)
Protocol: as §1, §2, §3

cdMMP-12 = target: T4, cdMMP-12 (Homo sapiens, UniProt P39900)
T4 construct: The catalytic domain of MMP-12 was expressed in E. coli; made in house; host or cells: E. coli
Protocol: as §1, §2, §3

T4 sequence (P39900 106-263 limits assumed): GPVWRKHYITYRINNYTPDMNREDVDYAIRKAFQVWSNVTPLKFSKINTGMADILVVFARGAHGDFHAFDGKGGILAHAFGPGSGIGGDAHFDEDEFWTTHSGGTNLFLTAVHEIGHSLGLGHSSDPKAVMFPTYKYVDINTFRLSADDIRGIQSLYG
T3 sequence (P14780 107-707 limits assumed): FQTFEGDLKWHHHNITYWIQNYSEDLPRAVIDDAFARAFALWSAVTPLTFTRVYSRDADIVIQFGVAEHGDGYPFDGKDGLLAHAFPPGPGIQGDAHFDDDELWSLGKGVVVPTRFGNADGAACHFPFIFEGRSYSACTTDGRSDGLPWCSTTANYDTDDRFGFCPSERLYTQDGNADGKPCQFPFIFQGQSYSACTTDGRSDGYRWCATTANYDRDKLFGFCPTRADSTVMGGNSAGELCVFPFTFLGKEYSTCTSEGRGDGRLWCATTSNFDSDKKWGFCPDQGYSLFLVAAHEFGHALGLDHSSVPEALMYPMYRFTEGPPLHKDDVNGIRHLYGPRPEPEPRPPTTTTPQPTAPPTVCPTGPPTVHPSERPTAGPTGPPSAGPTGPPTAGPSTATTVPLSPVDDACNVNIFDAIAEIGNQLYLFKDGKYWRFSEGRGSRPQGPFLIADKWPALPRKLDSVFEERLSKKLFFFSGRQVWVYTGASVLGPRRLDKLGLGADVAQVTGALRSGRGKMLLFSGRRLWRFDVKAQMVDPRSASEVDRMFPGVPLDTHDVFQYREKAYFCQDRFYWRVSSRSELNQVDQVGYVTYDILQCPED

| Compound | pIC50 (MMP-1) | pIC50 (cdMMP-13; read-out: cdMMP-13 IC50) | pIC50 (cdMMP-14) | pIC50 (MMP-9) | pIC50 (cdMMP-12) | pIC50 (cdMMP-13) |
| --- | --- | --- | --- | --- | --- | --- |
| COc1ccc(C2=NN=C(NC(=O)[C@H](C)NS(=O)(=O)c3ccccc3)SC2)cc1 [Example 12, (2S)-N-[5-(4-Methoxyphenyl)-6H-1,3,4-thiadiazin-2-yl]-2-[(phenylsulfonyl)-amino]propanamide] | 6.18 | 5.64 | 5.95 | 5.85 | 6.39 | – |
| C[C@@H](NS(=O)(=O)c1ccccc1)C(=O)NC1=NN=C(c2ccc(C#N)cc2)CS1 [Example 1, (2R)-N-[5-(4-Cyanophenyl)-6H-1,3,4-thiadiazine-2-yl]-2-[(phenylsulfonyl)amino]-propanamide] | 6.35 | 6.43 | 6.46 | 6.63 | 6.35 | – |
| C[C@H](NS(=O)(=O)c1ccccc1)C(=O)NC1=NN=C(c2ccc(C(F)(F)F)cc2)CS1 [Example 4, (2S)-2-[(Phenylsulfonyl)amino]-N-{5-[4-(trifluormethyl)phenyl]-6H-1,3,4-thiadiazin-2-yl}propanamide] | 6.31 | – | 5.96 | 5.98 | 6.44 | 5.99 |
| C[C@H](NS(=O)(=O)N1CCOCC1)C(=O)NC1=NN=C(c2ccc(Cl)cc2)CS1 [Example 28, (2S)-N-[5-(4-Chlorophenyl)-6H-1,3,4-thiadiazin-2yl-]-2-[(4-morpholinylsulfonyl)amino]propanamide] | 6.27 | – | 6.33 | 5.92 | 6.48 | 6.13 |
| C[C@H](NS(=O)(=O)c1cccnc1)C(=O)NC1=NN=C(c2ccc(Cl)cc2)CS1 [Example 29, (2S)-N-[5-(4-Chlorophenyl)-6H-1,3,4-thiadiazin-2-yl]-2-[(3-pyridylsulfonyl)-amino]propanamide] | 6.29 | 6.44 | 6.35 | 6.59 | 6.39 | – |
